Source: PMC7907646, “Identification of a Novel Pattern Recognition Receptor DM9 Domain Containing Protein 4 as a Marker for Pro-Hemocyte of Pacific Oyster Crassostrea gigas” (Frontiers in Immunology, 2021)

Biological target: T1, CgDM9CP-4 (rCgDM9CP-4) (Magallana gigas, UniProt A0A8W8N023)
T1 construct: full ORF, 145 residues, two tandem DM9 domains, predicted 16 kDa (~18 kDa on gel); pET-30a (NdeI/XhoI), His tag, E. coli Transetta (DE3), Ni column
Assay: ELISA on mannose-coated plate, one-site fit
Type: binding
Settings: apparent Kd; mannose coated at 20 μg in pH 9.6 buffer; 5 mmol L^-1 CaCl2, 0.1 mg mL^-1 BSA, 37°C; anti-His detection

T1 sequence (A0A8W8N023 entry or part of it): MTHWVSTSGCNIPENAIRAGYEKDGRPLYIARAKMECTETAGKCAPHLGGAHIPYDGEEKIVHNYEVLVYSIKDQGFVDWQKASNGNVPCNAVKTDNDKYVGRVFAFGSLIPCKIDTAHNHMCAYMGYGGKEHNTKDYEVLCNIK

Kd: 90 nM
SMILES: OC[C@H]1OC(O)[C@@H](O)[C@@H](O)[C@@H]1O (stereo partly shown) [Mannose]
